Source: US6469003B1, “Pyridazinone derivatives” (Nihon Nohyaku Co., Ltd., priority 1998, dated 2002)
Like-named read-outs stand apart in the source and are kept apart here.

Columns and labels:
[1] = test system: neutrophils isolated from human peripheral blood; test: Test of neutrophil adhesion inhibitory activity (fMLP-induced adhesion to keyhole limpet hemocyanin-coated plate); type: cell-based; conditions: fluorescence-labeled, fMLP final concentration of 50 nM, plate coated with keyhole limpet hemocyanin, 37° C., read-out: Test of neutrophil adhesion inhibitory (50% inhibition concentration) IC50
Experimental: Test Example (Test of Neutrophil Adhesion Inhibitory Activity)
To a 96 hole culture plate coated with keyhole limpet hemocyanin were added Dulbecco modified Eagle's media (DMEM, 25 μl) containing various concentrations of the test substance. The neutrophils isolated from human peripheral blood were labeled with fluorescence by means of 5,6-carboxyfluorescein diacetate, suspended into DMEM in a concentration of 1×10^6 cells/ml, and inoculated to the above plate in an amount of 50 μl. Then, after the addition of 25 μl of formylmethionyl-leucyl-phenylalanine (hereinafter referred to as “fMLP”) (final concentration of 50 nM), the cells were cultured at 37° C. for a certain period of time to induce the adhesion of the neutrophils to the plate. After culturing, the plate was washed with phosphate-buffered physiological saline to remove the neutrophils which were not adhered. The adhered neutrophils were dissolved and then the fluorescence intensity was measured. Using the data of a non-stimulated group where the stimulation with fMLP was not carried out and an fMLP-stimulated group where the stimulation was carried out, the adhesion inhibition rate at each concentration of the test substance was determined according to the following equation. From the concentration-inhibition curve, 50% inhibitory concentration (IC50) was calculated.
Adhesion inhibition rate (%)=(Fmax−Fx)/(Fmax−Fo)×100
Fx: the fluorescence intensity of the group treated with a test substance
Fmax: the fluorescence intensity of the fMLP-stimulated group
Fo: the fluorescence intensity of the non-stimulated group

| melting point [°C] | IC50 [1] [nM] | IC50 ([1]; Neutrophil) [nM] | SMILES |
| --- | --- | --- | --- |
| 153 to 156 | – | – | CC(=O)c1nn(-c2ccc(F)cc2)c(=O)c(OCc2cccnc2)c1C.Cl |
| – | 20 | – | CC(=O)c1nn(-c2cccc(Cl)c2)c(=O)c(Sc2ccc(F)cc2)c1C [Compound 1-07] |
| – | 5 | – | CC(=O)c1nn(-c2ccc(F)cc2)c(=O)c(Sc2ccc(F)cc2)c1C [Compound 1-20] |
| – | 196 | – | CC(=O)c1nn(-c2ccc(F)cc2)c(=O)c(Sc2ccccn2)c1C [Compound 1-21] |
| – | 9 | – | CC(=O)c1nn(-c2ccc(F)cc2)c(=O)c(Sc2cccnc2)c1C [Compound 1-22] |
| – | 6 | – | CC(=O)c1nn(-c2ccc(F)cc2)c(=O)c(Sc2cccnc2)c1C [Compound 1-23] |
| – | 14 | – | CC(=O)c1nn(-c2ccc(F)cc2)c(=O)c(Sc2ccncc2)c1C [Compound 1-24] |
| – | 10 | – | CC(=O)c1nn(-c2ccc(F)cc2)c(=O)c(Sc2ccncc2)c1C [Compound 1-25] |
| – | 55 | – | CC(=O)c1nn(-c2cccnc2)c(=O)c(Sc2ccc(F)cc2)c1C [Compound 1-31] |
| – | 32 | – | CC(=O)c1nn(-c2cccc(Cl)c2)c(=O)c(Oc2ccc(F)cc2)c1C [Compound 1-73] |
| – | 48 | – | CC(=O)c1nn(-c2cccc(F)c2)c(=O)c(Oc2ccc(F)cc2)c1C [Compound 1-74] |
| 116 to 117 | – | 11 | CC(=O)c1nn(-c2cccc(Cl)c2)c(=O)c(-c2cccs2)c1C [Compound 1-97, 6-acetyl-2-(3-chlorophenyl)-5-methyl-4-(2-thienyl)-3(2H)-pyridazinone] |
| – | 656 | – | CC(=O)c1nn(-c2cccc(F)c2)c(=O)c(-c2cccs2)c1C [Compound 1-98] |
| – | 410 | – | CC(=O)c1nn(-c2ccc(F)cc2)c(=O)c(-c2cccs2)c1C [Compound 1-100] |
| – | 310 | – | CC(=O)c1nn(-c2cccnc2)c(=O)c(-c2cccs2)c1C [Compound 1-102] |
| – | 358 | – | CC(=O)c1nn(-c2ccc(F)cc2)c(=O)c(OCc2ccccn2)c1C [Compound 1-113] |
| – | 44 | – | CC(=O)c1nn(-c2ccc(F)cc2)c(=O)c(OCc2ccncc2)c1C [Compound 1-115] |
| – | 138 | – | CC(=O)c1nn(-c2ccc(F)cc2)c(=O)c(OCc2cc[n+]([O-])cc2)c1C [Compound 1-130, 6-acetyl-2-(4-fluorophenyl)-5-methyl-4-((4-pyridyl N-oxide)methoxy)-3(2H)-pyridazinone] |
| – | 463 | – | CC(=O)c1nn(-c2ccc[n+]([O-])c2)c(=O)c(Sc2ccc(F)cc2)c1C [Compound 1-134, 6-acetyl-4-(4-fluorophenylthio)-5-methyl-2-(3-pyridyl N-oxide)-3(2H)-pyridazinone] |
| 172 to 174 | – | – | CC(=O)c1nn(-c2ccc(F)cc2)c(=O)c(Sc2ccc(N(C)C)cc2)c1C [Compound 4-04, 6-acetyl-4-(4-dimethylaminophenylthio)-2-(4-fluorophenyl)-5-methyl-3(2H)-pyridazinone] |

The next lines start with the compound.

| SMILES | melting point [°C] | IC50 [1] [nM] | IC50 ([1]; Neutrophil) [nM] |
| --- | --- | --- | --- |
| CC(=O)c1nn(-c2cccc(Cl)c2)c(=O)c(Sc2ccccc2Cl)c1C [Compound 1-01] | – | 16 | – |
| CC(=O)c1nn(-c2cccc(Cl)c2)c(=O)c(Sc2ccc(Cl)cc2)c1C [Compound 1-03] | – | 27 | – |
| COc1ccccc1Sc1c(C)c(C(C)=O)nn(-c2cccc(Cl)c2)c1=O [Compound 1-04] | – | 619 | – |
| COc1cccc(Sc2c(C)c(C(C)=O)nn(-c3cccc(Cl)c3)c2=O)c1 [Compound 1-05] | – | 32 | – |
| COc1ccc(Sc2c(C)c(C(C)=O)nn(-c3cccc(Cl)c3)c2=O)cc1 [Compound 1-06] | – | 40 | – |
| CC(=O)c1nn(-c2cccc(Cl)c2)c(=O)c(Sc2ccc(C)cc2)c1C [Compound 1-08] | – | 139 | – |
| CC(=O)c1nn(-c2cccc(Cl)c2)c(=O)c(Sc2ccc([N+](=O)[O-])cc2)c1C [Compound 1-10] | – | 93 | – |
| CC(=O)c1nn(-c2cccc(Cl)c2)c(=O)c(Sc2ccccn2)c1C [Compound 1-11] | – | 79 | – |
| CSc1c(C)c(C(C)=O)nn(-c2cccc(Cl)c2)c1=O [Compound 1-15] | – | 58 | – |
| CC(=O)c1nn(-c2cccc(Cl)c2)c(=O)c(SC(C)(C)C)c1C [Compound 1-17] | – | 19 | – |
| CC(=O)c1nn(-c2ccc(Cl)cc2)c(=O)c(Sc2ccc(Cl)cc2)c1C [Compound 1-29, 6-acetyl-2-(4-chlorophenyl)-4-(4-chlorophenylthio)-5-methyl-3(2H)-pyridazinone] | 165 to 166 | – | – |
| CC(=O)c1nn(-c2cccnc2)c(=O)c(Sc2ccncc2)c1C [Compound 1-32] | – | 165 | – |
| CC(=O)c1nn(-c2cccc(Cl)c2)c(=O)c(Sc2ccccc2)c1C [Compound 1-64, 6-acetyl-2-(3-chlorophenyl)-5-methyl-4-phenylthio-3(2H)-pyridazinone] | 99 to 100 | – | 4 |
| CC(=O)c1nn(-c2cccnc2)c(=O)c(Sc2ccccc2)c1C [Compound 1-68] | – | 7 | – |
| CC(=O)c1nn(-c2ccc(Cl)cc2)c(=O)c(Sc2ccccc2)c1C [Compound 1-69] | – | 222 | – |
| CC(=O)c1nn(-c2cccc(Cl)c2)c(=O)c(Oc2ccccc2)c1C [Compound 1-70] | – | 18 | – |
| O=C(O)c1cc(CSc2ccc(F)cc2)c(=O)n(-c2cccc(Cl)c2)n1 [Compound 1-80, 1-(3-chlorophenyl)-5-(4-fluorophenylthio)-methyl-6-oxohydropridazin-3-carboxylic acid] | – | 668 | – |
| CC(=O)c1nn(-c2cccc(Cl)c2)c(=O)c(S(=O)(=O)c2ccccc2)c1C [Compound 1-83, 6-acetyl-2-(3-chlorophenyl)-5-methyl-4-phenylsulfonyl-3(2H)-pyridazinone] | 175 to 176 | – | 12 |
| CC(=O)c1nn(-c2cccc(Cl)c2)c(=O)c([S+]([O-])c2ccccc2)c1C (centres unmarked) [Compound 1-84] | – | 10 | – |
| CC(=O)Nc1ccc(Sc2c(C)c(C(C)=O)nn(-c3ccc[n+]([O-])c3)c2=O)cc1 [Compound 1-151] | – | 975 | – |
| CC(=O)c1nn(-c2cccc(Cl)c2)c(=O)c(C(N)=S)c1C [Compound 1-153, 6-acetyl-4-(aminothioxomethyl)-2-(3-chlorophenyl)-5-methyl-3(2H)-pyridazinone] | 195 to 197 | – | – |
| CC(=O)c1nn(-c2cccc(Cl)c2)c(=O)c(-c2nccs2)c1C [Compound 1-155, 6-acetyl-2-(3-chlorophenyl)-5-methyl-4-(1,3-thiazol-2-yl)-3(2H)-pyridazinone] | 158 to 160 | – | – |
| CC(=O)c1nn(-c2ccc(F)cc2)c(=O)c(Sc2ccc(NS(C)(=O)=O)cc2)c1C [Compound 4-01, 6-acetyl-2-(4-fluorophenyl)-5-methyl-4-(4-methylsulfonylaminophenylthio)-3(2H)-pyridazinone] | 182 to 184 | – | – |
| CC(=O)c1nn(-c2ccc(F)cc2)c(=O)c(SCCN2CCOCC2)c1C [Compound 5-04, 6-acetyl-2-(4-fluorophenyl)-5-methyl-4-(2-morpholin-4-ylethylthio)-3(2H)-pyridazinone] | 92 to 93 | – | – |
| Cc1c(C(C)O)nn(-c2cccc(Cl)c2)c(=O)c1Sc1ccccc1 (centres unmarked) [Compound 6-01, 2-(3-chlorophenyl)-6-(1-hydroxyethyl)-5-methyl-4-phenylthio-3(2H)-pyridazinone] | 180 to 182 | – | 9 |
| Cc1c(C(C)O)nn(-c2ccc(F)cc2)c(=O)c1Sc1ccncc1 (centres unmarked) [Compound 6-02] | – | 306 | – |
